Data reported in patent US12486269B2 (Aconcagua Bio, Inc., priority 2024, dated 2025).

What was measured:
[1] = target: T1, COS-7/AMY3 (human calcitonin receptor (CTR) and RAMP3) (Homo sapiens, UniProt O60896+P30988); assay: Amylin Receptor cAMP Assay II; assay type: cell-based; details: values marked **: Amylin Receptor cAMP Assay II; COS-7/AMY3 cells, cAMP dynamic 2 kit, 30 min; read-out: Amylin Receptor cAMP Stimulation Activity: EC50
T1 construct: expressed in transfected cells; host or cells: COS-7
T1 sequence (O60896 24-148, one chain of several): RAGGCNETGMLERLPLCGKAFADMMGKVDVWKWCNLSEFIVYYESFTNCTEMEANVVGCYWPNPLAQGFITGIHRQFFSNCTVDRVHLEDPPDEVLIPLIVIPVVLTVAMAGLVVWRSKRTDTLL
Procedure, shortened: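 COS-7 cells stably co-expressing human CTR and RAMP3 (AMY3), 2000 cells/well in HBSS with 20 mM HEPES, 0.5 mM IBMX, 0.1% casein, stimulated with compound for 30 min at 37 °C. cAMP measured by HTRF (665/615 nm), activity normalized between vehicle and maximal control.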

[2] = target: T2, human calcitonin receptor (CTR) (Homo sapiens, UniProt P30988); assay: Calcitonin Receptor (CTR) cAMP Assay; assay type: cell-based; details: COS7-human CTR Clone #2 stable cell line, cAMP dynamic 2 kit, 30 min; read-out: Calcitonin Receptor cAMP Stimulation Activity: EC50
T2 construct: expressed in transfected cells; host or cells: COS-7 (COS7-human CTR Clone #2)
T2 sequence (P30988 25-474): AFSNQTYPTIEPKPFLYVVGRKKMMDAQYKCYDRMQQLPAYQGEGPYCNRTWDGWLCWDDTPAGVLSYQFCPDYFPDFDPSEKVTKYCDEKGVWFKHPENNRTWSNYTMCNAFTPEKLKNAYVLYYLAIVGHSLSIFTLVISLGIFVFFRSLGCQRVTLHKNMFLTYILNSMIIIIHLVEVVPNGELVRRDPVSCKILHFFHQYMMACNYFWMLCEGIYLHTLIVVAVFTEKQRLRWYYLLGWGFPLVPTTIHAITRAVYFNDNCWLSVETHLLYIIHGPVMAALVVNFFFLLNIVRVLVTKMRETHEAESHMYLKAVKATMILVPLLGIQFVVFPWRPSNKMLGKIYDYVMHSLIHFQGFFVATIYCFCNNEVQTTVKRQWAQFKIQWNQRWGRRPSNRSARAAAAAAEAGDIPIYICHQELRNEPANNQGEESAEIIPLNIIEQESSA
Procedure, shortened: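 COS-7 cells stably expressing human CTR (2000 cells/well) were incubated 30 min at 37 °C with 4-fold serially diluted compound in HBSS/20 mM HEPES/0.5 mM IBMX/0.1% casein. cAMP was detected by HTRF (665/615 nm) after 1 h at RT. % activity was normalised to vehicle and positive controls.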

Compound	EC50 [1]	EC50 [2]
O=C1c2c(nc(CCc3ccc(F)cc3)c(-c3n[nH]c(=O)o3)c2-c2cc3ccnc(N[C@@H]4CCc5cc(F)ccc54)c3s2)C23CC(CN12)C3 [Compound 280, (R)-5-(4-(7-((5-fluoro-2,3-dihydro-1H-inden-1-yl)amino)thieno[2,3-c]pyridin-2-yl)-2-(4-fluorophenethyl)-5-oxo-5,7,8,9-tetrahydro-8,9a-methanopyrido[2,3-a]pyrrolizin-3-yl)-1,3,4-oxadiazol-2(3H)-one]	0.935 nM	0.114 nM
COc1cccc2c1CC(F)(F)[C@H]2Nc1nccc2cc(-c3c4c(nc(CCc5ccc(F)cc5)c3-c3n[nH]c(=O)o3)C35CC(CN3C4=O)C5)sc12 [Compound 281, (S)-5-(4-(7-((2,2-difluoro-4-methoxy-2,3-dihydro-1H-inden-1-yl)amino)thieno[2,3-c]pyridin-2-yl)-2-(4-fluorophenethyl)-5-oxo-5,7,8,9-tetrahydro-8,9a-methanopyrido[2,3-a]pyrrolizin-3-yl)-1,3,4-oxadiazol-2(3H)-one]	0.733 nM	0.239 nM
COc1c(F)ccc2c1CC(F)(F)[C@H]2Nc1nccc2cc(-c3c4c(nc(CCc5ccc(F)cc5)c3-c3n[nH]c(=O)o3)[C@@H]3CCCN3C4=O)sc12 [Compound 282, 5-((S)-2-(4-fluorophenethyl)-5-oxo-4-(7-(((S)-2,2,5-trifluoro-4-methoxy-2,3-dihydro-1H-inden-1-yl)amino)thieno[2,3-c]pyridin-2-yl)-7,8,9,9a-tetrahydro-5H-pyrido[2,3-a]pyrrolizin-3-yl)-1,3,4-oxadiazol-2(3H)-one]	0.464 nM	0.0464 nM
COc1c(F)ccc2c1CC(F)(F)[C@H]2Nc1nccc2cc(-c3c4c(nc(CCc5ccc(F)cc5)c3-c3n[nH]c(=O)o3)C35CC(CN3C4=O)C5)sc12 [Compound 283, (S)-5-(2-(4-fluorophenethyl)-5-oxo-4-(7-((2,2,5-trifluoro-4-methoxy-2,3-dihydro-1H-inden-1-yl)amino)thieno[2,3-c]pyridin-2-yl)-5,7,8,9-tetrahydro-8,9a-methanopyrido[2,3-a]pyrrolizin-3-yl)-1,3,4-oxadiazol-2(3H)-one]	1.57 nM	0.0191 nM
COc1cccc2c1CC(F)(F)[C@H]2Nc1nccc2cc(-c3c4c(nc(CCc5ccc(F)cc5)c3-c3n[nH]c(=O)o3)[C@@H]3COCCN3C4=O)sc12 [Compound 284, (R)-4-(7-(((S)-2,2-difluoro-4-methoxy-2,3-dihydro-1H-inden-1-yl)amino)thieno[2,3-c]pyridin-2-yl)-2-(4-fluorophenethyl)-3-(5-oxo-4,5-dihydro-1,3,4-oxadiazol-2-yl)-7,8,10,10a-tetrahydro-5H-pyrido[2′,3′:3,4]pyrrolo[2,1-c][1,4]oxazin-5-one]	81.6 nM	4.23 nM
O=C1c2c(nc(CCc3ccc(F)cc3)c(-c3n[nH]c(=O)o3)c2-c2cc3ccnc(N[C@@H]4CCc5c4ccc(F)c5OC(F)F)c3s2)C23CC(CN12)C3 [Compound 285, (R)-5-(4-(7-((4-(difluoromethoxy)-5-fluoro-2,3-dihydro-1H-inden-1-yl)amino)thieno[2,3-c]pyridin-2-yl)-2-(4-fluorophenethyl)-5-oxo-5,7,8,9-tetrahydro-8,9a-methanopyrido[2,3-a]pyrrolizin-3-yl)-1,3,4-oxadiazol-2(3H)-one]	0.208 nM	0.0136 nM
COc1c(F)c(F)cc2c1CC[C@H]2Nc1nccc2cc(-c3c4c(nc(CCc5ccc(F)cc5)c3-c3n[nH]c(=O)o3)C35CC(CN3C4=O)C5)sc12 [Compound 286, (R)-5-(4-(7-((5,6-difluoro-4-methoxy-2,3-dihydro-1H-inden-1-yl)amino)thieno[2,3-c]pyridin-2-yl)-2-(4-fluorophenethyl)-5-oxo-8,9-dihydro-5H,7H-8,9a-methanopyrido[2,3-a]pyrrolizin-3-yl)-1,3,4-oxadiazol-2(3H)-one]	0.175 nM	0.00668 nM
COc1c(F)ccc2c1CC[C@H]2Nc1nc(C(F)F)cc2cc(-c3c4c(nc(CCc5ccc(F)cc5)c3-c3n[nH]c(=O)o3)C35CC(CN3C4=O)C5)sc12 [Compound 287, (R)-5-(4-(5-(difluoromethyl)-7-((5-fluoro-4-methoxy-2,3-dihydro-1H-inden-1-yl)amino)thieno[2,3-c]pyridin-2-yl)-2-(4-fluorophenethyl)-5-oxo-8,9-dihydro-5H,7H-8,9a-methanopyrido[2,3-a]pyrrolizin-3-yl)-1,3,4-oxadiazol-2(3H)-one]	0.35 nM	0.0178 nM
COc1c(F)cc(F)c2c1CC[C@H]2Nc1nccc2cc(-c3c4c(nc(CCc5ccc(F)cc5)c3-c3n[nH]c(=O)o3)C35CC(CN3C4=O)C5)sc12 [Compound 288, (R)-5-(4-(7-((5,7-difluoro-4-methoxy-2,3-dihydro-1H-inden-1-yl)amino)thieno[2,3-c]pyridin-2-yl)-2-(4-fluorophenethyl)-5-oxo-8,9-dihydro-5H,7H-8,9a-methanopyrido[2,3-a]pyrrolizin-3-yl)-1,3,4-oxadiazol-2(3H)-one]	1.59 nM	0.0436 nM
COc1c(Cl)cc2c(c1F)CC[C@H]2Nc1nccc2cc(-c3c4c(nc(CCc5ccc(F)cc5)c3-c3n[nH]c(=O)o3)C35CC(CN3C4=O)C5)sc12 [Compound 289, (R)-5-(4-(7-((6-chloro-4-fluoro-5-methoxy-2,3-dihydro-1H-inden-1-yl)amino)thieno[2,3-c]pyridin-2-yl)-2-(4-fluorophenethyl)-5-oxo-5,7,8,9-tetrahydro-8,9a-methanopyrido[2,3-a]pyrrolizin-3-yl)-1,3,4-oxadiazol-2(3H)-one]	0.54 nM	0.0645 nM
COc1c(F)ccc2c1CC(F)(F)[C@@H]2Nc1nccc2cc(-c3c4c(nc(CCc5ccc(F)cc5)c3-c3n[nH]c(=O)o3)[C@@H]3CCCN3C4=O)sc12 [Compound 290, 5-((S)-2-(4-fluorophenethyl)-5-oxo-4-(7-(((R)-2,2,5-trifluoro-4-methoxy-2,3-dihydro-1H-inden-1-yl)amino)thieno[2,3-c]pyridin-2-yl)-7,8,9,9a-tetrahydro-5H-pyrido[2,3-a]pyrrolizin-3-yl)-1,3,4-oxadiazol-2(3H)-one]	1640 nM	17.6 nM
COc1c(F)ccc2c1C[C@@H](F)[C@H]2Nc1nccc2cc(-c3c4c(nc(CCc5ccc(F)cc5)c3-c3n[nH]c(=O)o3)C35CC(CN3C4=O)C5)sc12 [Compound 291, 5-(4-(7-(((1S,2R)-2,5-difluoro-4-methoxy-2,3-dihydro-1H-inden-1-yl)amino)thieno[2,3-c]pyridin-2-yl)-2-(4-fluorophenethyl)-5-oxo-5,7,8,9-tetrahydro-8,9a-methanopyrido[2,3-a]pyrrolizin-3-yl)-1,3,4-oxadiazol-2(3H)-one]	0.363 nM	0.0138 nM
COc1c(F)ccc2c1CC(F)(F)[C@@H]2Nc1nccc2cc(-c3c4c(nc(CCc5ccc(F)cc5)c3-c3n[nH]c(=O)o3)C35CC(CN3C4=O)C5)sc12 [Compound 292, (R)-5-(2-(4-fluorophenethyl)-5-oxo-4-(7-((2,2,5-trifluoro-4-methoxy-2,3-dihydro-1H-inden-1-yl)amino)thieno[2,3-c]pyridin-2-yl)-5,7,8,9-tetrahydro-8,9a-methanopyrido[2,3-a]pyrrolizin-3-yl)-1,3,4-oxadiazol-2(3H)-one]	298 nM	7.36 nM
